# Results reported in US20240218022A1, “ANTI-VISTA MACROCYCLIC PEPTIDES AND COMPOSITIONS” (BRISTOL-MYERS SQUIBB COMPANY, priority 2022, published 2024).
# Read-outs that look alike come from different tables or passages of the source. Starred links: 1 amine or outer side, 2 acyl side, 3 side chain; linkers in the order of their positions; H or OH if unused. Positions of bridges follow the written chain, without caps; N, C: chain ends. Non-standard residues stand in square brackets, D forms with d. Residues, ends and D or L forms follow the SMILES beside them. NMeW = CN[C@@H](Cc1c[nH]c2ccccc12)C(=O)O; γGlu = O=C(O)[C@H](CCC(=O)[*:2])N[*:1]; βAsp = O=C(O)[C@H](CC(=O)[*:2])N[*:1]; NMeY = CN[C@@H](Cc1ccc(O)cc1)C(=O)O; Tic = O=C(O)[C@@H]1Cc2ccccc2CN1; Cit = NC(=O)NCCC[C@H](N)C(=O)O; NMeL = CN[C@@H](CC(C)C)C(=O)O; Ahp(2) = CCCCC[C@H](N)C(=O)O; NMeNle = CCCC[C@H](NC)C(=O)O; Tle = CC(C)(C)[C@H](N)C(=O)O; NMeV = CN[C@H](C(=O)O)C(C)C; NMeS = CN[C@@H](CO)C(=O)O; NHexGly = CCCCCCNCC(=O)O; Nle = CCCC[C@H](N)C(=O)O; Orn = NCCC[C@H](N)C(=O)O; Aun = NCCCCCCCCCCC(=O)O; AEEA = NCCOCCOCC(=O)O
# Target: T1, mouse VISTA (mVISTA) (Mus musculus, UniProt Q9D659)
# T1 construct: expressed in transfected cells; host or cells: Human embryonic kidney 293T cells
# T1 sequence (Q9D659 33-308): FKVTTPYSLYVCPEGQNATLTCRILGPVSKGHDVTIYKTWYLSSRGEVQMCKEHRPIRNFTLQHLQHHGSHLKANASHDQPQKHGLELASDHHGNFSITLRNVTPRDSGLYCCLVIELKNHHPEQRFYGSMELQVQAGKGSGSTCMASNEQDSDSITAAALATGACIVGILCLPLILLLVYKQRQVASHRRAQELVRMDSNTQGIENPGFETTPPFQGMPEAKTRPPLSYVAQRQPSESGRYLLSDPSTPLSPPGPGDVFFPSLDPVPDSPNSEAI
# Experiment: Cell-Based Binding High-Content Assay For mVISTA (HC CBA mVISTA)
# Procedure, shortened: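 Competition of compound with a biotinylated peptide (final 2 nM, 30 min at RT) for binding to mVISTA on 293T cells, run under no-wash or wash (1 h compound preincubation then removal) formats. Readout by Alexa 647–streptavidin imaging on a high-content platform; four-parameter logistic fit gave IC50.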
SMILES,IC50 (read-out: HC CBA mVISTA IC50),"IC50 (cell-based binding high-content assay, mVISTA, read-out: HC CBA miPr ISTA IC50)"
CCCCCCN1CC(=O)N[C@@H](Cc2ccc(O)cc2)C(=O)N[C@@H](CCCCC)C(=O)N[C@@H](CC(N)=O)C(=O)N[C@@H](CCCNC(=N)N)C(=O)N(C)[C@@H](CCCC)C(=O)N[C@@H](CCCCC)C(=O)N2CCC[C@H]2C(=O)N[C@@H](C(C)C)C(=O)N[C@@H](CC(=O)O)C(=O)N[C@H](C(=O)N[C@@H](CO)C(N)=O)CSCC(=O)N[C@@H](Cc2ccccc2)C(=O)N[C@@H](Cc2c[nH]c3ccccc23)C(=O)N[C@@H](CC(=O)O)C1=O [Example 1405] ({CH2CO}-FWD[NHexGly]Y[Ahp(2)]NR[NMeNle][Ahp(2)]PVDCS-NH2; thioether N-14),5 nM,
CCCCCCN1CC(=O)N[C@@H](Cc2ccc(O)cc2)C(=O)N[C@@H](CCCC)C(=O)N[C@@H](CC(N)=O)C(=O)N[C@@H](CCCNC(=N)N)C(=O)N(C)[C@@H](CCCC)C(=O)N[C@@H](CCCCC)C(=O)N2CCC[C@H]2C(=O)N[C@@H](C(C)C)C(=O)N[C@@H](CC(=O)O)C(=O)N[C@H](C(=O)N[C@@H](CO)C(=O)O)CSCC(=O)N[C@@H](Cc2ccccc2)C(=O)N[C@@H](Cc2c[nH]c3ccccc23)C(=O)N[C@@H](CC(=O)O)C1=O [Example 1406] ({CH2CO}-FWD[NHexGly]Y[Nle]NR[NMeNle][Ahp(2)]PVDCS-OH; thioether N-14),6.4 nM,
CCCCCCN1CC(=O)N[C@@H](Cc2ccc(O)cc2)C(=O)N[C@@H](CCCC)C(=O)N[C@@H](CC(=O)O)C(=O)N[C@@H](CCCNC(=N)N)C(=O)N(C)[C@@H](CCCC)C(=O)N[C@@H](CCCCC)C(=O)N2CCC[C@H]2C(=O)N[C@@H](C(C)C)C(=O)N[C@@H](CC(=O)O)C(=O)N[C@H](C(=O)N[C@@H](CO)C(N)=O)CSCC(=O)N[C@@H](Cc2ccccc2)C(=O)N[C@@H](Cc2c[nH]c3ccccc23)C(=O)N[C@@H](CC(=O)O)C1=O [Example 1407] ({CH2CO}-FWD[NHexGly]Y[Nle]DR[NMeNle][Ahp(2)]PVDCS-NH2; thioether N-14),34.5 nM,
CCCCCCN1CC(=O)N[C@@H](Cc2ccc(O)cc2)C(=O)N[C@@H](CCCC)C(=O)N[C@@H](CC(N)=O)C(=O)N[C@@H](CCCNC(=N)N)C(=O)N(C)[C@@H](CO)C(=O)N[C@@H](CCCCC)C(=O)N2CCC[C@H]2C(=O)N[C@@H](C(C)C)C(=O)N[C@@H](CC(=O)O)C(=O)N[C@H](C(=O)NCC(=O)O)CSCC(=O)N[C@@H](Cc2ccccc2)C(=O)N[C@@H](Cc2c[nH]c3ccccc23)C(=O)N[C@@H](CC(=O)O)C1=O [Example 1408] ({CH2CO}-FWD[NHexGly]Y[Nle]NR[NMeS][Ahp(2)]PVDCG-OH; thioether N-14),20.8 nM,
CCCCCCN1CC(=O)N[C@@H](Cc2ccc(O)cc2)C(=O)N[C@@H](CCCC)C(=O)N[C@@H](CC(N)=O)C(=O)N[C@@H](CCCNC(=N)N)C(=O)N(C)[C@@H](C(C)C)C(=O)N[C@@H](CCCCC)C(=O)N2CCC[C@H]2C(=O)N[C@@H](C(C)C)C(=O)N[C@@H](CC(=O)O)C(=O)N[C@H](C(=O)NCC(=O)O)CSCC(=O)N[C@@H](Cc2ccccc2)C(=O)N[C@@H](Cc2c[nH]c3ccccc23)C(=O)N[C@@H](CC(=O)O)C1=O [Example 1409] ({CH2CO}-FWD[NHexGly]Y[Nle]NR[NMeV][Ahp(2)]PVDCG-OH; thioether N-14),12.7 nM,
CCCCCCN1CC(=O)N[C@@H](Cc2ccc(O)cc2)C(=O)N[C@@H](CCCC)C(=O)N[C@@H](CC(N)=O)C(=O)N[C@@H](CCCNC(=N)N)C(=O)N(C)[C@@H](Cc2c[nH]c3ccccc23)C(=O)N[C@@H](CCCCC)C(=O)N2CCC[C@H]2C(=O)N[C@@H](C(C)C)C(=O)N[C@@H](CC(=O)O)C(=O)N[C@H](C(=O)NCC(=O)O)CSCC(=O)N[C@@H](Cc2ccccc2)C(=O)N[C@@H](Cc2c[nH]c3ccccc23)C(=O)N[C@@H](CC(=O)O)C1=O [Example 1410] ({CH2CO}-FWD[NHexGly]Y[Nle]NR[NMeW][Ahp(2)]PVDCG-OH; thioether N-14),5.3 nM,
CCCCCCN1CC(=O)N[C@@H](Cc2ccc(O)cc2)C(=O)N[C@@H](CCCC)C(=O)N[C@@H](CC(N)=O)C(=O)N[C@@H](CCCNC(=N)N)C(=O)N(C)[C@@H](Cc2ccc(O)cc2)C(=O)N[C@@H](CCCCC)C(=O)N2CCC[C@H]2C(=O)N[C@@H](C(C)C)C(=O)N[C@@H](CC(=O)O)C(=O)N[C@H](C(=O)NCC(=O)O)CSCC(=O)N[C@@H](Cc2ccccc2)C(=O)N[C@@H](Cc2c[nH]c3ccccc23)C(=O)N[C@@H](CC(=O)O)C1=O [Example 1411] ({CH2CO}-FWD[NHexGly]Y[Nle]NR[NMeY][Ahp(2)]PVDCG-OH; thioether N-14),18.6 nM,
CCCCCCN1CC(=O)N[C@@H](Cc2ccc(O)cc2)C(=O)N[C@@H](CCCC)C(=O)N[C@@H](CC(N)=O)C(=O)N[C@@H](CCCNC(N)=O)C(=O)N2Cc3ccccc3C[C@H]2C(=O)N[C@@H](CCCCC)C(=O)N2CCC[C@H]2C(=O)N[C@@H](C(C)C)C(=O)N[C@@H](CC(=O)O)C(=O)N[C@H](C(=O)NCC(N)=O)CSCC(=O)N[C@@H](Cc2ccccc2)C(=O)N[C@@H](Cc2c[nH]c3ccccc23)C(=O)N[C@@H](CC(=O)O)C1=O [Example 1412] ({CH2CO}-FWD[NHexGly]Y[Nle]N[Cit][Tic][Ahp(2)]PVDCG-NH2; thioether N-14),13.1 nM,
CCCCCCN1CC(=O)N[C@@H](Cc2ccc(O)cc2)C(=O)N[C@@H](CCCC)C(=O)N[C@@H](CC(N)=O)C(=O)N[C@@H](CCCNC(N)=O)C(=O)N2Cc3ccccc3C[C@H]2C(=O)N[C@@H](CCCCC)C(=O)N2CCC[C@H]2C(=O)N[C@@H](C(C)C)C(=O)N[C@@H](CO)C(=O)N[C@H](C(=O)NCC(N)=O)CSCC(=O)N[C@@H](Cc2ccccc2)C(=O)N[C@@H](Cc2c[nH]c3ccccc23)C(=O)N[C@@H](CC(=O)O)C1=O [Example 1413] ({CH2CO}-FWD[NHexGly]Y[Nle]N[Cit][Tic][Ahp(2)]PVSCG-NH2; thioether N-14),18.9 nM,
CCCCCCN1CC(=O)N[C@@H](Cc2ccc(O)cc2)C(=O)N[C@@H](CCCC)C(=O)N[C@@H](CC(N)=O)C(=O)N[C@@H](CCCNC(=N)N)C(=O)N2Cc3ccccc3C[C@H]2C(=O)N[C@@H](CCCCC)C(=O)N2CCC[C@H]2C(=O)N[C@@H](C(C)C)C(=O)N[C@@H](CC(=O)O)C(=O)N[C@H](C(=O)NCC(N)=O)CSCC(=O)N[C@@H](Cc2ccccc2)C(=O)N[C@@H](Cc2c[nH]c3ccccc23)C(=O)N[C@@H](CC(=O)O)C1=O [Example 1414] ({CH2CO}-FWD[NHexGly]Y[Nle]NR[Tic][Ahp(2)]PVDCG-NH2; thioether N-14),12.3 nM,
CCCCCCN1CC(=O)N[C@@H](Cc2ccc(O)cc2)C(=O)N[C@@H](CCCC)C(=O)N[C@@H](CC(N)=O)C(=O)N[C@@H](CCCNC(=N)N)C(=O)N2Cc3ccccc3C[C@H]2C(=O)N[C@@H](CCCCC)C(=O)N2CCC[C@H]2C(=O)N[C@@H](C(C)C)C(=O)N[C@@H](CO)C(=O)N[C@H](C(=O)NCC(N)=O)CSCC(=O)N[C@@H](Cc2ccccc2)C(=O)N[C@@H](Cc2c[nH]c3ccccc23)C(=O)N[C@@H](CC(=O)O)C1=O [Example 1415] ({CH2CO}-FWD[NHexGly]Y[Nle]NR[Tic][Ahp(2)]PVSCG-NH2; thioether N-14),18.1 nM,
CCCCCCN1CC(=O)N[C@@H](Cc2ccc(O)cc2)C(=O)N[C@@H](CC(C)C)C(=O)NCC(=O)N[C@@H](CCCNC(=N)N)C(=O)N[C@@H](Cc2ccc(O)cc2)C(=O)N[C@@H](CCCCC)C(=O)N2CCC[C@H]2C(=O)N[C@@H](C(C)C)C(=O)N[C@@H](CC(=O)O)C(=O)N[C@H](C(=O)NCC(N)=O)CSCC(=O)N[C@@H](Cc2ccccc2)C(=O)N[C@@H](Cc2c[nH]c3ccccc23)C(=O)N[C@@H](CC(=O)O)C1=O [Example 1416] ({CH2CO}-FWD[NHexGly]YLGRY[Ahp(2)]PVDCG-NH2; thioether N-14),51.7 nM,
CCCCCCN1CC(=O)N[C@@H](Cc2ccc(O)cc2)C(=O)N[C@@H](CC(C)C)C(=O)NCC(=O)N[C@@H](CCCNC(=N)N)C(=O)N[C@@H](Cc2ccc(O)cc2)C(=O)N[C@@H](CCCCC)C(=O)N2CCC[C@H]2C(=O)N[C@@H](C(C)C)C(=O)N[C@@H](CC(=O)O)C(=O)N[C@H](C(=O)NCC(=O)O)CSCC(=O)N[C@@H](Cc2ccccc2)C(=O)N[C@@H](Cc2c[nH]c3ccccc23)C(=O)N[C@@H](CC(=O)O)C1=O [Example 1417] ({CH2CO}-FWD[NHexGly]YLGRY[Ahp(2)]PVDCG-OH; thioether N-14),24.9 nM,
CCCCCCN1CC(=O)N[C@@H](Cc2ccc(O)cc2)C(=O)N[C@@H](CC(C)C)C(=O)N[C@@H](CC(N)=O)C(=O)N[C@@H](CCCN)C(=O)N(C)[C@@H](CC(C)C)C(=O)N[C@@H](CCCCC)C(=O)N2CCC[C@H]2C(=O)N[C@@H](C(C)(C)C)C(=O)N[C@@H](CO)C(=O)N[C@H](C(=O)N[C@@H](CC(=O)NCCOCCOCC(=O)N[C@@H](CC(=O)O)C(=O)NCCOCCOCC(=O)NCCCCCCCCCCC(=O)O)C(=O)O)CSCC(=O)N[C@@H](Cc2ccccc2)C(=O)N[C@@H](Cc2ccc(O)cc2)C(=O)N[C@@H](CC(=O)O)C1=O [Example 2000] ({CH2CO}-FYD[NHexGly]YLN[Orn][NMeL][Ahp(2)]P[Tle]SC[βAsp][AEEA]D[AEEA][Aun]-OH; thioether N-14),,16.1 nM
CCCCCCN1CC(=O)N[C@@H](Cc2ccc(O)cc2)C(=O)N[C@@H](CC(C)C)C(=O)N[C@@H](CC(N)=O)C(=O)N[C@@H](CCCNC(=N)N)C(=O)N[C@@H](CC(C)C)C(=O)N[C@@H](CCCCC)C(=O)N2CCC[C@H]2C(=O)N[C@@H](C(C)C)C(=O)N[C@@H](CO)C(=O)N[C@H](C(=O)N[C@@H](CCC(=O)NCCCCCCCCCCC(=O)O)C(=O)O)CSCC(=O)N[C@@H](Cc2ccccc2)C(=O)N[C@@H](Cc2ccc(O)cc2)C(=O)N[C@@H](CC(=O)O)C1=O [Example 2127] ({CH2CO}-FYD[NHexGly]YLNRL[Ahp(2)]PVSC[γGlu][Aun]-OH; thioether N-14),15.9 nM,
